What is called IC50 is the point on the concentration scale where inhibition reaches its midpoint. A high value points to weaker potency in that assay.

“And” between values parts separate entries of the source, which are not always exact repeats. Equal entries are not always repeated.

T1 sequence (Q07820 171-327): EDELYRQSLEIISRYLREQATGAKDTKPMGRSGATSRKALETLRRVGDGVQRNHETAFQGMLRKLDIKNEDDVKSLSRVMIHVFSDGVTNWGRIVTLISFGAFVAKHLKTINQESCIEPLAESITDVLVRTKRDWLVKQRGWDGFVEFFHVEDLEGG

This test concerns the target T1, Induced myeloid leukemia cell differentiation protein Mcl-1 [171-327] (Homo sapiens, UniProt Q07820).
T1 construct: 171-327
Kind of test: Time-Resolved Fluorescence Resonance Energy Transfer (TR-FRET) Assay. For orientation: In TR-FRET formats the signal depends on donor and acceptor labels being close together.
Method: The inhibition of the Mcl-1/Bim interaction was measured using a time-resolved fluorescence resonance energy transfer (TR-FRET) assay. […] A biotinylated peptide derived from human Bim (residues 51-76) was purchased from CPC Scientific (San Jose, Calif.). The TR-FRET assay was conducted in a 384-well white OptiPlate (PerkinElmer, Waltham, Mass.) in a total volume of 40 uL. […] The reaction plates were further incubated overnight and then were read on an Envision multimode reader (PerkinElmer). […] The IC50 values of test compounds were determined from duplicate data by analyzing competition curves using a four-parameter sigmoidal model in GraphPad Prism.
Consider `C[C@@H]1[C@@H](C)C/C=C/[C@@](O)(c2ccc(F)nc2)[C@@H]2CC[C@H]2CN2C[C@@]3(CCCc4cc(Cl)ccc43)COc3ccc(cc32)C(=O)NS1(=O)=O` (single isomer, unassigned) [US10821115, Example 100420], for which half-maximal inhibition (IC50) was put at 0.112 nM.
For `CO[C@@]1(CN2CCN(CCS(C)(=O)=O)CC2)/C=C/C[C@H](C)[C@@H](C)S(=O)(=O)NC(=O)c2ccc3c(c2)N(C[C@@H]2CC[C@H]21)C[C@@]1(CCCc2cc(Cl)ccc21)CO3` [US10821115, Example 81], the midpoint of inhibition, the IC50, lay at 0.14 nM.
The compound `CO[C@]1(CN2CCN(CC(F)(F)F)CC2)/C=C/C[C@H](C)[C@@H](C)S(=O)(=O)NC(=O)c2ccc3c(c2)N(C[C@@H]2CC[C@H]21)C[C@@]1(CCCc2cc(Cl)ccc21)CO3` [US10821115, Example 93] displayed an IC50 of 0.53 nM.
To `CCO[C@]1(CN2CCN(C(COC)COC)CC2)/C=C/C[C@H](C)[C@@H](C)S(=O)(=O)NC(=O)c2ccc3c(c2)N(C[C@@H]2CC[C@H]21)C[C@@]1(CCCc2cc(Cl)ccc21)CO3` [US10821115, Example 116] belongs 0.244 nM; to `CO[C@@]1(CN2CCN(C3CCOCC3)CC2)/C=C/C[C@H](C)[C@@H](C)S(=O)(=O)NC(=O)c2ccc3c(c2)N(C[C@@H]2CC[C@H]21)C[C@@]1(CCCc2cc(Cl)ccc21)CO3` [US10821115, Example 262], 0.093 nM.
`CO[C@@]1(CN2CCC(N3CCOCC3)CC2)/C=C/C[C@H](C)[C@@H](C)S(=O)(=O)NC(=O)c2ccc3c(c2)N(C[C@@H]2CC[C@H]21)C[C@@]1(CCCc2cc(Cl)ccc21)CO3` [US10821115, Example 263] returned an IC50 of 0.147 nM.
The figure for `CO[C@@]1(CN2CCN([C@H]3CCOC(=O)C3)CC2)/C=C/C[C@H](C)[C@@H](C)S(=O)(=O)NC(=O)c2ccc3c(c2)N(C[C@@H]2CC[C@H]21)C[C@@]1(CCCc2cc(Cl)ccc21)CO3` [US10821115, Example 271] is 0.031 nM; for `CO[C@@]1(CN2CCN([C@H](CCO)CC(=O)O)CC2)/C=C/C[C@H](C)[C@@H](C)S(=O)(=O)NC(=O)c2ccc3c(c2)N(C[C@@H]2CC[C@H]21)C[C@@]1(CCCc2cc(Cl)ccc21)CO3` [US10821115, Example 278] it is 0.039 nM.
The compound `COCC(COC)N1CCN(C[C@]2(OC)/C=C/C[C@H](C)[C@@H](C)S(=O)(=O)NC(=O)c3ccc4c(c3)N(C[C@@H]3CC[C@H]32)C[C@@]2(CCCc3cc(Cl)ccc32)CO4)CC1` [US10821115, Example 287] displayed an IC50 of 0.137 nM.
`COCCN(CCOC)C1CCN(C[C@]2(OC)/C=C/C[C@H](C)[C@@H](C)S(=O)(=O)NC(=O)c3ccc4c(c3)N(C[C@@H]3CC[C@H]32)C[C@@]2(CCCc3cc(Cl)ccc32)CO4)CC1` [US10821115, Example 308] yielded an IC50 of 0.111 nM.
To `CO[C@@]1(CN2CCN(CC(CO)CO)CC2)/C=C/C[C@H](C)[C@@H](C)S(=O)(=O)NC(=O)c2ccc3c(c2)N(C[C@@H]2CC[C@H]21)C[C@@]1(CCCc2cc(Cl)ccc21)CO3` [US10821115, Example 310] belongs 0.117 nM.
To `CCO[C@@]1(CN2CCN(C3(C)COC3)CC2)/C=C/C[C@H](C)[C@@H](C)S(=O)(=O)NC(=O)c2ccc3c(c2)N(C[C@@H]2CC[C@H]21)C[C@@]1(CCCc2cc(Cl)ccc21)CO3` [US10821115, Example 311] belongs 0.324 nM; to `CCO[C@@]1(CN2CCC(N(CCOC)CCOC)CC2)/C=C/C[C@H](C)[C@@H](C)S(=O)(=O)NC(=O)c2ccc3c(c2)N(C[C@@H]2CC[C@H]21)C[C@@]1(CCCc2cc(Cl)ccc21)CO3` [US10821115, Example 312], 0.576 nM.
With `CO[C@]1(CN2CCN(C3(C)COC3)CC2)/C=C/C[C@H](C)[C@@H](C)S(=O)(=O)NC(=O)c2ccc3c(c2)N(C[C@@H]2CC[C@H]21)C[C@@]1(CCCc2cc(Cl)ccc21)CO3` [US10821115, Example 319], the IC50 stood at 0.081 nM.
To `CO[C@@]1(CC(=O)N(C)C)/C=C/C[C@H](C)[C@@H](C)S(=O)(=O)NC(=O)c2ccc3c(c2)N(C[C@@H]2CC[C@H]21)C[C@@]1(CCCc2cc(Cl)ccc21)CO3` [US10821115, Example 100135] belongs 0.173 nM.
With `CO[C@]1(c2cccnc2F)/C=C/C[C@H](C)[C@@H](C)S(=O)(=O)NC(=O)c2ccc3c(c2)N(C[C@@H]2CC[C@H]21)C[C@@]1(CCCc2cc(Cl)ccc21)CO3` [US10821115, Example 100324], the IC50 is 0.244 nM and 0.182 nM.
The figure for `CO[C@]1(c2cccc(F)n2)/C=C/C[C@H](C)[C@@H](C)S(=O)(=O)NC(=O)c2ccc3c(c2)N(C[C@@H]2CC[C@H]21)C[C@@]1(CCCc2cc(Cl)ccc21)CO3` [US10821115, Example 100339] is 0.779 nM.
To `CCN(CC)C(=O)C[C@]1(OC)/C=C/C[C@H](C)[C@@H](C)S(=O)(=O)NC(=O)c2ccc3c(c2)N(C[C@@H]2CC[C@H]21)C[C@@]1(CCCc2cc(Cl)ccc21)CO3` [US10821115, Example 100347] belongs 0.689 nM.
The figure for `CO[C@@]1(c2cccnn2)/C=C/C[C@H](C)[C@@H](C)S(=O)(=O)N(C)C(=O)c2ccc3c(c2)N(C[C@@H]2CC[C@H]21)C[C@@]1(CCCc2cc(Cl)ccc21)CO3` [US10821115, Example 100350] is 0.489 nM.
With `CO[C@@]1(CC(=O)N(C)C2CC2)/C=C/C[C@H](C)[C@@H](C)S(=O)(=O)NC(=O)c2ccc3c(c2)N(C[C@@H]2CC[C@H]21)C[C@@]1(CCCc2cc(Cl)ccc21)CO3` [US10821115, Example 100374], inhibition was half-maximal at 0.289 nM (IC50).
To `C[C@@H]1[C@@H](C)C/C=C/[C@](O)(C#CCCc2ccccn2)[C@@H]2CC[C@H]2CN2C[C@@]3(CCCc4cc(Cl)ccc43)COc3ccc(cc32)C(=O)NS1(=O)=O` [US10821115, Example 100455] belongs 0.087 nM.
Regarding `CO[C@@]1(CC(=O)NCCO)/C=C/C[C@H](C)[C@@H](C)S(=O)(=O)NC(=O)c2ccc3c(c2)N(C[C@@H]2CC[C@H]21)C[C@@]1(CCCc2cc(Cl)ccc21)CO3` [US10821115, Example 100465], the IC50 was determined as 0.121 nM.
To `COC(=O)C(C)(C)NC(=O)C[C@]1(OC)/C=C/C[C@H](C)[C@@H](C)S(=O)(=O)NC(=O)c2ccc3c(c2)N(C[C@@H]2CC[C@H]21)C[C@@]1(CCCc2cc(Cl)ccc21)CO3` [US10821115, Example 100544] belongs 0.171 nM; to `CO[C@@]1(CC(=O)NC(C)(C)C(=O)O)/C=C/C[C@H](C)[C@@H](C)S(=O)(=O)NC(=O)c2ccc3c(c2)N(C[C@@H]2CC[C@H]21)C[C@@]1(CCCc2cc(Cl)ccc21)CO3` [US10821115, Example 100546], 0.084 nM; to `COC(=O)CNC(=O)C[C@]1(OC)/C=C/C[C@H](C)[C@@H](C)S(=O)(=O)NC(=O)c2ccc3c(c2)N(C[C@@H]2CC[C@H]21)C[C@@]1(CCCc2cc(Cl)ccc21)CO3` [US10821115, Example 100550], 0.059 nM.
To `CO[C@@]1(CC(=O)NCc2ncco2)/C=C/C[C@H](C)[C@@H](C)S(=O)(=O)NC(=O)c2ccc3c(c2)N(C[C@@H]2CC[C@H]21)C[C@@]1(CCCc2cc(Cl)ccc21)CO3` [US10821115, Example 100577] belongs 0.045 nM; to `COC(=O)[C@H](NC(=O)C[C@]1(OC)/C=C/C[C@H](C)[C@@H](C)S(=O)(=O)NC(=O)c2ccc3c(c2)N(C[C@@H]2CC[C@H]21)C[C@@]1(CCCc2cc(Cl)ccc21)CO3)[C@@H](C)O` [US10821115, Example 100581], 0.363 nM; to `CO[C@@]1(CC(N)=O)/C=C/C[C@H](C)[C@@H](C)S(=O)(=O)NC(=O)c2ccc3c(c2)N(C[C@@H]2CC[C@H]21)C[C@@]1(CCCc2cc(Cl)ccc21)CO3` [US10821115, Example 100589], 1.83 nM.
